The values below come from US20090227533A1, “miR-34 Regulated Genes and Pathways as Targets for Therapeutic Intervention” (priority 2007, published 2009).

In test [1] the test system is H522 cells. Nature of the test: Alamar Blue proliferation assay, lung cancer cells. It counts as cell-based, human. As to conditions: normalized to NC (100%). From the text:
(§1) The inventors assessed the therapeutic effect of hsa-miR-34a for lung cancer by using eight individual lung cancer cell lines. To measure cellular proliferation of lung cancer cells, the following non-small cell lung cancer (NSCLC) cells were used: cells derived from lung adenocarcinoma (A549, H522, Calu-3, HCC2935), cells derived from lung squamous cell carcinoma (H226), cell derived from lung adenosquamous cell carcinoma (H596), cells derived from lung bronchioalveolar carcinoma (H1650), and cells derived from lung large cell carcinoma (H460). Synthetic hsa-miR-34a (Pre-miR™-hsa-miR-34a, Ambion cat. no. AM17100) or negative control (NC) miRNA (Pre-miR™ microRNA Precursor Molecule-Negative Control #2; Ambion cat. no. AM17111) was delivered via lipid-based transfection into A549, H522, H596, Calu-3, HCC2935, H1650, H460 cells and via electroporation into H226 cells.
(§2) Lipid-based reverse transfections were carried out in triplicate according to a published protocol (Ovcharenko et al., 2005) and the following parameters: cells (5,000-12,000 per 96 well), 0.1-0.2 μl Lipofectamine™ 2000 (cat. no. 11668-019, Invitrogen Corp., Carlsbad, Calif., USA) in 20 μl OptiMEM (Invitrogen), 30 nM final concentration of miRNA in 100 μl. Electroporation of H226 cells was carried out using the BioRad Gene Pulser Xcell™ instrument (BioRad Laboratories Inc., Hercules, Calif., USA) with the following settings: 5×10^6 cells with 5 μg miRNA in 200 μl OptiMEM (1.6 μM miRNA), square wave pulse at 250 V for 5 ms. Electroporated H226 cells were seeded at 7,000 cells per 96-well in a total volume of 100 μl. All cells except for Calu-3 cells were harvested 72 hours post transfection or electroporation for assessment of cellular proliferation. Calu-3 cells were harvested 10 days post transfection. Proliferation assays were performed using Alamar Blue (Invitrogen) following the manufacturer's instructions. As a control for inhibition of cellular proliferation, siRNA against the motor protein kinesin 11, also known as Eg5, was used. Eg5 is essential for cellular survival of most eukaryotic cells and a lack thereof leads to reduced cell proliferation and cell death (Weil et al., 2002). siEg5 was used in lipid-based transfection following the same experimental parameters that apply to miRNA. The inventors also used a DNA topoisomerase II inhibitor, etoposide, at a final concentration of 10 μM and 50 μM as an internal standard for the potency of miRNAs. Etoposide is an FDA-approved DNA topoisomerase II inhibitor in the treatment of lung cancer. […] Percent (%) proliferation values from the Alamar Blue assay were normalized to values from cells treated with negative control miRNA. Percent proliferation of hsa-miR-34a treated cells relative to cells treated with negative control miRNA (100%) is shown in Table 7 and in FIG. 1.
(In general: Resazurin is reduced to fluorescent resorufin, in cell work by metabolically active cells.)

Test [2] relates to H1650 cells. In words: Alamar Blue proliferation assay, lung cancer cells. It is filed as cell-based, human. The note with it: normalized to NC (100%).
Excerpt: as §1, §2

For test [3], the system named is A549 cells. In words: Alamar Blue proliferation assay, lung cancer cells. It counts as cell-based, human. As to conditions: normalized to NC (100%).
Excerpt: as §1, §2

Test [4] concerns H460 cells. In words: Alamar Blue proliferation assay, lung cancer cells. As to conditions: normalized to NC (100%). It is filed as cell-based, human.
Excerpt: as §1, §2

In test [5] the test system is H596 cells. In words: Alamar Blue proliferation assay, lung cancer cells. It is filed as cell-based, human. As to conditions: normalized to NC (100%).
Excerpt: as §1, §2

Test [6] concerns Calu-3 cells. In words: Alamar Blue proliferation assay, lung cancer cells. It counts as cell-based, human. The note with it: Calu-3, normalized to NC (100%).
Excerpt: as §1, §2

The subject of test [7] is H226 cells. Nature of the test: Alamar Blue proliferation assay, lung cancer cells (electroporation). It counts as cell-based, human. As to conditions: normalized to NC (100%).
Excerpt: as §1
Lipid-based reverse transfections were carried out in triplicate according to a published protocol (Ovcharenko et al., 2005) and the following parameters: cells (5,000-12,000 per 96 well), 0.1-0.2 μl Lipofectamine™ 2000 (cat. no. 11668-019, Invitrogen Corp., Carlsbad, Calif., USA) in 20 μl OptiMEM (Invitrogen), 30 nM final concentration of miRNA in 100 μl. Electroporation of H226 cells was carried out using the BioRad Gene Pulser Xcell™ instrument (BioRad Laboratories Inc., Hercules, Calif., USA) with the following settings: 5×10^6 cells with 5 μg miRNA in 200 μl OptiMEM (1.6 μM miRNA), square wave pulse at 250 V for 5 ms. Electroporated H226 cells were seeded at 7,000 cells per 96-well in a total volume of 100 μl. All cells except for Calu-3 cells were harvested 72 hours post transfection or electroporation for assessment of cellular proliferation. Calu-3 cells were harvested 10 days post transfection. Proliferation assays were performed using Alamar Blue (Invitrogen) following the manufacturer's instructions. As a control for inhibition of cellular proliferation, siRNA against the motor protein kinesin 11, also known as Eg5, was used. […]

Test [8] has as its system H460 lung cancer cells. In words: Alamar Blue proliferation assay with pair-wise miRNA combinations. It is filed as cell-based, human. As to conditions: normalized to 600 pM negative control miRNA. An excerpt: miRNAs function in multiple pathways controlling multiple cellular processes. Cancer cells frequently show aberrations in several different pathways, which determine their oncogenic properties. […] The inventors assessed the efficacy of pair-wise miRNA combinations, administering hsa-miR-34a concurrently with either hsa-miR-124a, hsa-miR-126, hsa-miR-147, hsa-let-7b, hsa-let-7c or hsa-let-7g (Pre-miR™ miRNA, Ambion cat. no. AM17100). H460 lung cancer cells were transiently reverse-transfected in triplicate with each miRNA at a final concentration of 300 pM, resulting in 600 pM of total oligonucleotide. For negative controls, 600 pM of Pre-miR™ microRNA Precursor Molecule-Negative Control #2 (Ambion cat. no. AM17111) were used. To correlate the effect of various combinations with the effect of the sole miRNA, each miRNA at 300 pM was also combined with 300 pM negative control miRNA. Reverse transfection was carried out using the following parameters: 7,000 cells per 96 well, 0.15 μl Lipofectamine™ 2000 (Invitrogen) in 20 μl OptiMEM (Invitrogen), 100 μl total transfection volume. […] Cells were harvested 72 hours after transfection and subjected to Alamar Blue assays (Invitrogen). Percent proliferation values from the Alamar Blue assays were normalized to those obtained from cells treated with 600 pM negative control miRNA. Data are expressed as % proliferation relative to negative control miRNA-treated cells (Table 8, FIG. 3).
Additive activity of pair-wise combinations (e.g., hsa-miR-34a plus hsa-miR-147) is defined as an activity that is greater than the sole activity of each miRNA (e.g., the activity of hsa-miR-34a plus hsa-miR-147 is greater than that observed for hsa-miR-34a plus NC and the activity of hsa-miR-34a plus hsa-miR-147 is greater than that observed for hsa-miR-147 plus NC). Synergistic activity of pair-wise combinations is defined as an activity that is greater than the sum of the sole activity of each miRNA (e.g., the activity of hsa-miR-34a plus hsa-let-7g is greater than that observed for the sum of the activity of hsa-miR-34a plus NC and the activity of hsa-let-7g plus NC). […] The combinatorial use of miRNAs represents a potentially useful therapy for cancer and other diseases.

In test [9] the test system is SCLC and NSCLC cells. As to conditions: various lung cancer cells (Tsai et al., 1993; Ohsaki et al., 1992); cited from earlier work.

In general, IC50 refers to the concentration that inhibits the measured activity by half.

On to `COc1cc([C@@H]2c3cc4c(cc3[C@@H](O[C@@H]3O[C@@H]5CO[C@@H](C)O[C@H]5[C@H](O)[C@H]3O)[C@H]3COC(=O)[C@H]23)OCO4)cc(OC)c1O` [Etoposide, etoposide], for which the “% proliferation” value in [1] (etoposide 10 μM) was 82.13%; in test [1] (etoposide 50 μM), 61.08%; in test [2] (etoposide 10 μM), 90.98%; in [2] (etoposide 50 μM) it was 60.31%; in [3] (etoposide 10 μM), 49.13%; in [3] (etoposide 50 μM), 42.18%. For the same molecule, the “% proliferation” value is 32.13% in test [4] (etoposide 10 μM); 27.82% in test [4] (etoposide 50 μM); 88.75% in test [5] (etoposide 10 μM); 73.39% in test [5] (etoposide 50 μM); 20.81% in test [6] (etoposide 10 μM); 13.53% in [6] (etoposide 50 μM). The “% proliferation” value amounted to 28.17% in test [7] (etoposide 10 μM), 9.33% in [7] (etoposide 50 μM), 20.19% in test [8] (etoposide 10 μM) and 14.94% in test [8] (etoposide 50 μM). In addition, the IC50 in test [9] was 1 to 25 µM.
